Reference: patent US20240156800A1, “EP300 DEGRADER AND USES THEREOF IN NEUROBLASTOMA” (DANA-FARBER CANCER INSTITUTE, INC., priority 2021, published 2024)

Legend:
His-tagged CRBN = His-tagged CRBN (Homo sapiens, UniProt Q96SW2); assay: AlphaLISA assay with biotinylated pomalidomide and His-tagged CRBN; type: binding; conditions: competition with biotinylated pomalidomide
Method: To determine whether JQAD1 interacts with the E3 ligase receptor CRBN, the AlphaLISA® platform was used to perform AlphaLISA® fluorescent assays using biotinylated pomalidomide bound to beads and His-tagged CRBN (Yasgar et al. Methods Mol. Biol. 1439:77-98 (2016)). […] Next, biotinylated JQAD1 (Biotin-JQAD1, Scheme 2) was synthesized and incubated with Kelly cell lysates, followed by streptavidin-based purification. […] PROTAC®s may acquire preferential specificity for one of two possible target enzymes due to restricted three-dimensional interactions, as noted in Burslem and Crews, Cell 181:102-14 (2020).
Assays were performed with minimal modifications from the manufacturer's protocol (PerkinElmer®, USA). Briefly, a 2× solution of components with final concentrations of CRBN-DDB1 at 50 nM, Ni-coated Acceptor Beads at 20 μg/ml, and 15 nM biotinylated-pomalidomide were added in […] to 384-well plates (AlphaPlate-384, PerkinElmer®, USA). 100 nL of compound in DMSO from stock plates were added by pin transfer using a Janus Workstation (PerkinElmer®, USA). Streptavidin-coated donor beads (20 μg/ml final) were added to the solution, followed by incubation at room temperature for 1 hour, and reading on an Envision 2104 (PerkinElmer®, USA), by the manufacturer's protocol.

[1] = test system: pro- and anti-apoptotic mRNA transcripts; assay: ERCC spike-in RNA-seq of treated Kelly cells; type: cell-based, human; conditions: 500 nM, 24 h
Method: For in vitro analyses, total RNA was extracted from control […] or JQAD1 treated Kelly cells using TRIzolTM reagent (Ambion). Prior to extraction, exogenous spike-in of synthetic External RNA Control Consortium (ERCC) RNA controls were added based on cell number (Ambion). Samples were treated with RNAse-free DNAse I and spin purified using the Qiagen® RNeasy Kit (Qiagen®). Purified RNA samples were subjected to library construction with poly-adenylation preparation and sequencing using the Illumina NextSeq® 500 (paired end, 75bp reads). RNA-seq reads were aligned to a reference index containing the sequences of the hg19 revision of the human reference genome and the ERCC spike-in probes using hisat 2.1.0. Expression was quantified using sorted BAMs, a gene reference built using ERCC sizes and RefSeq genes downloaded Jul. 15, 2017, and htseq-count with parameters -I gene_id- stranded=reverse -f bam -m intersection-strict. Read counts were converted to transcripts per million (TPM) and used for cell number-normalization. The expression of all RefSeq genes and ERCC probes was floored at 0.01 and a pseudocount of 0.1 was added to all entries. Values were normalized by equilibrating the expression of the ERCC probes among experiments using normalize.loess from the affy R package. The ERCC-normalized expression of each gene after 24 h of either […] or JQAD1 treatment was compared against its expression in dimethyl sulfoxide (DMSO) treated samples to create two-fold changes.

NB cell lines = assay: Colony formation assays of NB cells with EP300/CBP inhibitors; type: cell-based, human; conditions: multiple NB cell lines (Kelly, BE2C, NB69, NGP); compared with C646 and CBP30
Method: (§1) Cells were infected with lentiviruses encoding sgRNAs or treated with compounds as described. Colony assays were performed by replating cells at 500 cells per well in 6-well dishes and grown in regular growth media for 10 d before 100% methanol fixation, 0.05% crystal violet staining, and quantitation. Experiments were completed in triplicate; data shown are the average of three independent experiments. Cell Titer-Glo® assay was performed as per the manufacturer's instructions (Promega®). Briefly, 1000 cells/well were plated into 96-well plates and treated with a range of compound dosing. Cell viability was measured at the noted time points based on luminescence by the Cell Titer-Glo® assay (Promega®) and read on an Envision 2104 (PerkinElmer®, USA) according to the manufacturer's protocol.

H3K27ac = assay: Western blotting of H3K27ac in treated NB cells; type: cell-based, human
Method: (§2) Cells growing in culture were lysed for whole cell lysates as described in Durbin et al. Nat. Genet. 50:1240-1246 (2018) and Wang et al. Nat. Commun. 10:5622 (2019). Nuclear lysates were prepared using the NE-PER® nuclear lysate kit (Thermo Scientific™) according to the manufacturer's protocol. Chromatin lysates were prepared with the total histone extraction kit (Epigentek). Briefly, equivalent amounts of protein were resolved by western blotting using 4-12% Bis-Tris NuPAGE™ gels (Thermo-Fisher Scientific) prior to transfer, and immunoblotting using primary antibodies to: MYCN (1:1000, Cell Signaling Technology®), H3K27ac (1:1000, Abcam), total H3 (1:1000, Cell Signaling Technology®), EP300 (1:1000, Abcam), CBP (1:500, Cell Signaling Technology®), Cas9 (1:1000, Cell Signaling Technology®), cleaved-PARP1 (1:1000, Cell Signaling Technology), cleaved Caspase-3 (1:1000, Cell Signaling Technology®), β-actin (1:1000, Cell Signaling Technology®), GATA3 (1:1000, EMD Millipore™), TFAP2β (1:1000, Cell Signaling Technology®), Vinculin (1:1000, EMD Millipore™), CRBN (1:1000, Cell Signaling Technology®), HAND2 (1:1000, Santa Cruz Biotechnology). Secondary antibodies were horseradish peroxidase (HRP)-conjugated anti-rabbit or anti-mouse (1:5000, Santa Cruz Biotechnology), incubated prior to exposure to enhanced chemiluminescence reagents (GE, Amersham). For immunoprecipitation, equal amounts of protein were diluted in buffer C as described in Mansour et al. Science 346:1373-1377 (2014) and incubated with antibodies covalently conjugated to Dynabeads™ M-270 beads (Thermo-Fisher Scientific) overnight according to the manufacturer's directions. Antibodies used included: H3K27ac, EP300 (Abcam), CBP, TFAP2β (Cell Signaling Technology®), rabbit immunoglobulin G (IgG) (Santa Cruz Biotechnology®). Immunoprecipitated protein was isolated as per the manufacturer's directions and subjected to western blotting, as described above, or mass spectrometry.

[2] = test system: cleaved caspase-3 and cleaved PARP1; assay: Western blotting of apoptosis markers; type: cell-based, human
Method: as §2

[3] = test system: Kelly-Cas9 control or CRBN knockout cells; assay: CellTiter-Glo assay of Kelly-Cas9 control or CRBN knockout cells; type: cell-based, human; conditions: range of doses, seven days
Method: as §1
sgRNAs targeting individual genes were subcloned by standard methodologies within pLKO.5-EFGP. Kelly, SIMA, BE2C, and NGP cells were infected with lenticas9 followed by blasticidin selection. Stable expression of cas9 was established by western blotting of protein lysates using cas9 antibody (Cell Signaling Technology®). Following infection of pLKO.5-EGFP-sgRNA lentivirus, cells were cultured for the identified times prior to evaluation. BE2C cells were infected with pLC-zsgreen or pLC-CRBN lentiviruses and selected using 500 μg/mL hygromycin (Invitrogen™)

[4] = test system: Kelly, NGP and BE2C NB cells; assay: Propidium iodide DNA flow cytometry (cell cycle, sub-G1); type: cell-based, human
Method: Cells were infected with lentiviruses encoding single guide RNAs (sgRNAs) or treated with compounds as described for the noted length of time. Cells were then liberated from adhesion to the plate using a sterile spatula (Coming®) followed by centrifugation, aspiration of media, and resuspension in hypotonic citrate-propidium iodide (PI) solution for 30 minutes at 37° C. (Tate et al. Cytometry 4:211-215 (1983)). Nuclei were stabilized using 5M NaCl prior to analysis on a FACSAria™ II (BD Biosciences). Analysis of cell cycle phases was performed using FlowJo® v10.7 (BD Biosciences).

MYCN = assay: Western blotting of MYCN (whole lysates and chromatin extracts); type: cell-based, human
Method: as §2

[5] = BE2C 1 μM, Kelly 500 nM, seven days

His-tagged CRBN, sequence (Q96SW2 whole entry): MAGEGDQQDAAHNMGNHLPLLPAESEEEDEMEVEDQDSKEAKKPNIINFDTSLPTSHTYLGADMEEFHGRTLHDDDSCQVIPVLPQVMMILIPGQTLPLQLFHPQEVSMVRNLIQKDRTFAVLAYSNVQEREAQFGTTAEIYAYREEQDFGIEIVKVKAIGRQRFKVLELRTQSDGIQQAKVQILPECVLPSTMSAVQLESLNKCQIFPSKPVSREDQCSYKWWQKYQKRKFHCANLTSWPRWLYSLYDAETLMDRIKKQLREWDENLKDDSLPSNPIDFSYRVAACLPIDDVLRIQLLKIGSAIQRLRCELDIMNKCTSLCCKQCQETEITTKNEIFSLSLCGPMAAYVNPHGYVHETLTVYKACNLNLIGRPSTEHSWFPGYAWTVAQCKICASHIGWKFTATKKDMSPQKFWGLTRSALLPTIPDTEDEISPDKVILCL
His-tagged CRBN, sequence (Q16531 whole entry partner): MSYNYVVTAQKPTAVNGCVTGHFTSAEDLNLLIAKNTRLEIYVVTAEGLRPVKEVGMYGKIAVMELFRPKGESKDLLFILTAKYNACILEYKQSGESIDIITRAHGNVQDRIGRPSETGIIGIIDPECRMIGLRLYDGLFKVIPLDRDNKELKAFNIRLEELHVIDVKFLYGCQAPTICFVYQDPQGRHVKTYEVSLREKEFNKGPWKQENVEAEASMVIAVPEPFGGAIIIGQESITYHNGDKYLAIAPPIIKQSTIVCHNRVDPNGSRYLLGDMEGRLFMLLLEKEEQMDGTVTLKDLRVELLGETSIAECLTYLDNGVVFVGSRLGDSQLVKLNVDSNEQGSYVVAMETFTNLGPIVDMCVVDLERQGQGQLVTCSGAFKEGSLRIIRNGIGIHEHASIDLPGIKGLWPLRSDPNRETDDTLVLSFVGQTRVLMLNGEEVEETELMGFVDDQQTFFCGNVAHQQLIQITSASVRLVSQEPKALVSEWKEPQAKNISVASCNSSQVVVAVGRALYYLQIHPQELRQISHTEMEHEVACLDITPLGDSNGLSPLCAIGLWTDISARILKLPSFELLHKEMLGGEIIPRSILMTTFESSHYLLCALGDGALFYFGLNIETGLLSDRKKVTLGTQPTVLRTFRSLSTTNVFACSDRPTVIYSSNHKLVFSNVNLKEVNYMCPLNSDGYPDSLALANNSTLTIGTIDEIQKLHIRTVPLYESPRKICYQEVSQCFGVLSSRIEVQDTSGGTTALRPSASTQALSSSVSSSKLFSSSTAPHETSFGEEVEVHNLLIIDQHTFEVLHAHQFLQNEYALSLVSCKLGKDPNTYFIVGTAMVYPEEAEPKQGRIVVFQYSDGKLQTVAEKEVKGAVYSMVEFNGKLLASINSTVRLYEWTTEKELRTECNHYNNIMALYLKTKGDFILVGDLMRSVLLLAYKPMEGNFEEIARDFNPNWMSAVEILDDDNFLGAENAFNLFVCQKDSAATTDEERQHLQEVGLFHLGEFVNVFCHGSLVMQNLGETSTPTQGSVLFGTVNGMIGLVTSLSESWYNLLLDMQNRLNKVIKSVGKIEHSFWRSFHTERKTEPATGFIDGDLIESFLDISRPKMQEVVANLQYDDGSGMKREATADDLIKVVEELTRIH

Row | SMILES | interaction with CRBN (His-tagged CRBN) | transcript levels of BIM, BID, PUMA, BAX, BCL2 and MCL1 [1] | reduction of neuroblastoma colony formation (NB cell lines) | H3K27Ac modification after prolonged treatment (H3K27ac; [5]) | H3K27ac modification (H3K27ac; Kelly cells, 24 h) | cleaved caspase 3 and PARP1 after prolonged treatment [2, 5] | apoptosis: cleavage of caspase-3 and PARP1 ([2]; Kelly (1 μM) and NGP (2.5 μM) cells, 12-36 h) | growth of CRBN-knockout Kelly cells [3] | growth of control-edited Kelly cells [3] | cell cycle effect ([4]; BE2C, Kelly, NGP cells, within 24 hours) | cell cycle / subG1 effect ([4]; Kelly and NGP cells) | MYCN expression after prolonged treatment (MYCN; [5]) | chromatin-bound MYCN (MYCN; Kelly cells, 0.5 and 1 μM, 24 h, chromatin extracts)
1 | CNC(=O)Nc1ccc2c(c1)CC[C@@]21OC(=O)N(CC(=O)N(Cc2ccc(F)cc2)[C@@H](C)C(F)(F)F)C1=O [A485] | did not | unaffected | most potent compound in reducing neuroblastoma colony formation | global loss of the H3K27Ac modification | loss of H3K27ac | induction of cleaved caspase 3 and poly [ADP-ribose] polymerase 1 (PARP1) | little effect on these parameters | equivalently inhibited the growth of both CRBN-knockout cells and controls | equivalently inhibited the growth of both CRBN-knockout cells and controls | G1 cell cycle arrest | G1 cell cycle arrest | loss of MYCN expression | did not show MYCN loss from chromatin extracts up to 1.0 μM
2 | Nc1cccc2c1C(=O)N(C1CCC(=O)NC1=O)C2=O (centres unmarked) [pomalidomide] | efficiently interacted with CRBN |  |  |  |  |  |  |  |  |  |  |  | 
